Patent US20240208992A1, “MACROCYCLES AS CFTR MODULATORS” (Idorsia Pharmaceuticals Ltd, priority 2021, published 2024)

Molecular target: human F508del-CFTR (Homo sapiens, UniProt P13569, DEL508-508)
Assay: F508del-CFTR cell surface expression (corrector activity), DiscoveRx ß-galactosidase complementation chemiluminescence assay in recombinant U2OS cell line;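 also: U2OS cells co-expressing ProLink-tagged F508del-CFTR and a membrane-anchored enzyme acceptor, where more surface CFTR restores β-galactosidase activity measured by chemiluminescence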
Settings: for EC50: EC50, F508del-CFTR cell surface expression, U2OS cells, 16h compound incubation, geomean values; for Emax: U2OS, in relation to Emax of corrector lumacaftor (=100%), arithmetic mean values

Sequence of human F508del-CFTR (P13569 with tags, fused parts or gaps DEL508-508): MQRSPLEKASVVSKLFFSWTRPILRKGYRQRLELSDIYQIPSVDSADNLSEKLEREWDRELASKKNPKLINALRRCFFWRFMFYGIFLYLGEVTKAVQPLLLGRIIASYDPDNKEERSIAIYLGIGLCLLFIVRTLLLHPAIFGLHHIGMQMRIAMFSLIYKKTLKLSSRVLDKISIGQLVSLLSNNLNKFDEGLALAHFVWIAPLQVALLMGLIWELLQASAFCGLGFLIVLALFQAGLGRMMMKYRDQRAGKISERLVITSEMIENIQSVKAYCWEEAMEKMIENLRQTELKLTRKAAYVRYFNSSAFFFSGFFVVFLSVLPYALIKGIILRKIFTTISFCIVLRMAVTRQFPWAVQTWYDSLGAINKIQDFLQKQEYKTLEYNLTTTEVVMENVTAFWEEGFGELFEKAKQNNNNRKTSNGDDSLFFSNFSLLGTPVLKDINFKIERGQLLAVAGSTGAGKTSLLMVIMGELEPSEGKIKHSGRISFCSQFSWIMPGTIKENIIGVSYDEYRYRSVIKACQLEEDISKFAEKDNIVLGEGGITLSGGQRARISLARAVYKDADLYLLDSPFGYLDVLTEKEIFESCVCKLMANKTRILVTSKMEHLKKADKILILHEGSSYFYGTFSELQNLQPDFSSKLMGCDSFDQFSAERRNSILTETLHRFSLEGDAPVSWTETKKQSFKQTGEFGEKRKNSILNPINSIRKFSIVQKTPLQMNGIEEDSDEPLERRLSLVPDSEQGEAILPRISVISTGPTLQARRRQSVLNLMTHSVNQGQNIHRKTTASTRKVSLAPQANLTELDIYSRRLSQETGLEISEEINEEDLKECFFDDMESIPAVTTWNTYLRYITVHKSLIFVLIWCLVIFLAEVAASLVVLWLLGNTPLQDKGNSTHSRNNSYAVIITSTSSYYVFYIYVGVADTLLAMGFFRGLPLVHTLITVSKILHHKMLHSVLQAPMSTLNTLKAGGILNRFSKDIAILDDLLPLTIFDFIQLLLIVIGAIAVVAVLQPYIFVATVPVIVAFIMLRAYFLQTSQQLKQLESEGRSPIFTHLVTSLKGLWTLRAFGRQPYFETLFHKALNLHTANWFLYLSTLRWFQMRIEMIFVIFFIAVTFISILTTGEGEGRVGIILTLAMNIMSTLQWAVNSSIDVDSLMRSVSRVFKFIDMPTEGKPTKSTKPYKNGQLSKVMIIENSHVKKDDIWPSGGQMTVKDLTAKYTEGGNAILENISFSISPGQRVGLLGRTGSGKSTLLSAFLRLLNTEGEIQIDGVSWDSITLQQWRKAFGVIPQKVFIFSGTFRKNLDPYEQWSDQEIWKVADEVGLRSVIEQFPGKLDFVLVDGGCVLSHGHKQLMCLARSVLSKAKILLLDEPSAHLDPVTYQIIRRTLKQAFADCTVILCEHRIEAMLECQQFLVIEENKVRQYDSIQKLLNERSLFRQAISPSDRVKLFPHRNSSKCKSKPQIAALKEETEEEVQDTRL

## CC(C)C[C@H]1C(=O)N2CCCC[C@@H]2C(=O)N[C@H](Cc2ccccc2)COc2ccc3ncn(C)c3c2C(=O)N[C@H](C(=O)NCCc2c(F)cccc2F)CC(=O)N1C [Example 485, (8S,12S,18aR,21R)-21-benzyl-N-(2,6-difluorophenethyl)-12-isobutyl-5,11-dimethyl-6,10,13,19-tetraoxo-6,7,8,9,10,11,12,13,16,17,18,18a,19,20,21,22-hexadecahydro-5H,15H-imidazo[4′,5′:5,6]benzo[1,2-p]pyrido[2,1-f][1]oxa[4,7,10,14]tetraazacycloheptadecine-8-carboxamide]
  EC50: 238 nM
  Emax: 204%

## CC(C)C[C@H]1C(=O)N2CCCC[C@@H]2C(=O)N[C@H](Cc2ccccc2)COc2ccc3ncccc3c2C(=O)N[C@H](C(=O)NCCc2noc(C3CC3)n2)CC(=O)N1C [Example 486, (9S,13S,19aR,22R)-22-benzyl-N-(2-(5-cyclopropyl-1,2,4-oxadiazol-3-yl)ethyl)-13-isobutyl-12-methyl-7,11,14,20-tetraoxo-7,8,9,10,11,12,13,14,17,18,19,19a,20,21,22,23-hexadecahydro-16H-pyrido[2′,11:6,7][1]oxa[4,7,10,14]tetraazacycloheptadecino[16,17-f]quinoline-9-carboxamide]
  EC50: 201 nM
  Emax: 303%

## Cc1cc(CCNC(=O)[C@@H]2CC(=O)N(C)[C@@H](CC(C)C)C(=O)N3CCCC[C@@H]3C(=O)N[C@@H](Cc3ccccc3)COc3cnc4ccccc4c3C(=O)N2)on1 [Example 487, (9S,13S,19aR,22S)-22-benzyl-13-isobutyl-12-methyl-N-(2-(3-methylisoxazol-5-yl)ethyl)-7,11,14,20-tetraoxo-7,8,9,10,11,12,13,14,17,18,19,19a,20,21,22,23-hexadecahydro-16H-pyrido[2′,1′:6,7][1]oxa[4,7,10,14]tetraazacycloheptadecino[17,16-c]quinoline-9-carboxamide]
  EC50: 1340 nM
  Emax: 147%

## COc1cccc(CCNC(=O)[C@@H]2CC(=O)N(C)[C@@H](CC(C)C)C(=O)N(C)C3(CC3)C(=O)N[C@H](Cc3ccccc3)COc3ccc(OC)nc3C(=O)N2)c1 [Example 488, (3′R,9′S,13′S)-3′-benzyl-9′-isobutyl-17′-methoxy-N-(3-methoxyphenethyl)-7′,10′-dimethyl-5′,8′,11′,15′-tetraoxo-2′,3′,4′,5′,8′,9′,10′,11′,12′,13′,14′,15′-dodecahydro-7′H-spiro[cyclopropane-1,6′-pyrido[2,3-p][1]oxa[4,7,10,14]tetraazacycloheptadecine]-13′-carboxamide]
  EC50: 910 nM
  Emax: 270%

## CC(C)C[C@H]1C(=O)N2CCOC[C@@H]2C(=O)N[C@H](Cc2ccccc2)COc2cnc3ccc(F)cc3c2C(=O)N[C@H](C(=O)NCCc2noc(C3CC3)n2)CC(=O)N1C [Example 489, (9S,13S,19aR,22R)-22-benzyl-N-(2-(5-cyclopropyl-1,2,4-oxadiazol-3-yl)ethyl)-5-fluoro-13-isobutyl-12-methyl-7,11,14,20-tetraoxo-7,8,9,10,11,12,13,14,16,17,19,19a,20,21,22,23-hexadecahydro-[1,4]oxazino[3′,4′:6,7][1]oxa[4,7,10,14]tetraazacycloheptadecino[17,16-c]quinoline-9-carboxamide]
  EC50: 625 nM
  Emax: 273%

## CC(C)C[C@H]1C(=O)N2CCCC[C@@H]2C(=O)N[C@H](Cc2ccccc2)COc2ccc3c(cnn3C)c2C(=O)N[C@H](C(=O)NCCc2c(F)cccc2F)CC(=O)N1C [Example 490, (8S,12S,18aR,21R)-21-benzyl-N-(2,6-difluorophenethyl)-12-isobutyl-3,11-dimethyl-6,10,13,19-tetraoxo-6,7,8,9,10,11,12,13,16,17,18,18a,19,20,21,22-hexadecahydro-3H,15H-pyrido[2′,1′:6,7][1]oxa[4,7,10,14]tetraazacycloheptadecino[16,17-e]indazole-8-carboxamide]
  EC50: 222 nM
  Emax: 181%

## CC(C)C[C@H]1C(=O)N2CCCC[C@@H]2C(=O)N[C@H](Cc2ccccc2)COc2ccc3c(c2C(=O)N[C@H](C(=O)NCCc2c(F)cccc2F)CC(=O)N1C)OCC3 [Example 491, (8S,12S,18aR,21R)-21-benzyl-N-(2,6-difluorophenethyl)-12-isobutyl-11-methyl-6,10,13,19-tetraoxo-3,4,6,7,8,9,10,11,12,13,16,17,18,18a,19,20,21,22-octadecahydro-15H-benzofuro[7,6-p]pyrido[2,1-f][1]oxa[4,7,10,14]tetraazacycloheptadecine-8-carboxamide]
  EC50: 209 nM
  Emax: 178%

## CO[C@H]1C[C@]2(C1)C(=O)N[C@H](Cc1ccccc1)COc1ccc3ccccc3c1C(=O)N[C@H](C(=O)NCCc1ccc(-n3nccn3)cc1)CC(=O)N(C)[C@@H](CC(C)C)C(=O)N2C [Example 492, (1r,3S,3′S,7′S,13′R)-N-(4-(2H-1,2,3-triazol-2-yl)phenethyl)-13′-benzyl-7′-isobutyl-3-methoxy-6′,9′-dimethyl-1′,5′,8′,11′-tetraoxo-2′,3′,4′,5′,6′,7′,8′,9′,11′,12′,13′,14′-dodecahydro-1′H-spiro[cyclobutane-1,10′-naphtho[1,2-p][1]oxa[4,7,10,14]tetraazacycloheptadecine]-3′-carboxamide]
  EC50: 305 nM
  Emax: 168%

## CO[C@H]1C[C@]2(C1)C(=O)N[C@H](Cc1ccccc1)COc1cnc3ccccc3c1C(=O)N[C@H](C(=O)NCCc1ccc(-n3nccn3)cc1)CC(=O)N(C)[C@@H](CC(C)C)C(=O)N2C [Example 493, (1r,3S,3′S,7′S,13′R)-N-(4-(2H-1,2,3-triazol-2-yl)phenethyl)-13′-benzyl-7′-isobutyl-3-methoxy-6′,9′-dimethyl-1′,5′,8′,11′-tetraoxo-2′,3′,4′,5′,6′,7′,8′,9′,11′,12′,13′,14′-dodecahydro-1′H-spiro[cyclobutane-1,10′-[1]oxa[4,7,10,14]tetraazacycloheptadecino[17,16-c]quinoline]-3′-carboxamide]
  EC50: 687 nM
  Emax: 253%

## COc1cccc(CCNC(=O)[C@@H]2CC(=O)N(C)[C@@H](CC(C)C)C(=O)N(C)C3(CC3)C(=O)N[C@H](Cc3ccccc3)COc3ccc4cnccc4c3C(=O)N2)c1 [Example 494, (3′S,7′S,13′R)-13′-benzyl-7′-isobutyl-N-(3-methoxyphenethyl)-6′,9′-dimethyl-1′,5′,8′,11′-tetraoxo-2′,3′,4′,5′,6′,7′,8′,9′,11′,12′,13′,14′-dodecahydro-1′H-spiro[cyclopropane-1,10′-[1]oxa[4,7,10,14]tetraazacycloheptadecino[16,17-f]isoquinoline]-3′-carboxamide]
  EC50: 260 nM
  Emax: 295%

## Cc1cc(CCNC(=O)[C@@H]2CC(=O)N(C)[C@@H](CC(C)C)C(=O)N(C)C3(Cc4ccccc4C3)C(=O)N[C@H](Cc3ccccc3)COc3cnc4ccccc4c3C(=O)N2)on1 [Example 495, (3′S,7′S,13′R)-13′-benzyl-7′-isobutyl-6′,9′-dimethyl-N-(2-(3-methylisoxazol-5-yl)ethyl)-1′,5′,8′,11′-tetraoxo-1,2′,3,3′,4′,5′,6′,7′,8′,9′,11′,12′,13′,14′-tetradecahydro-1′H-spiro[indene-2,10′-[1]oxa[4,7,10,14]tetraazacycloheptadecino[17,16-c]quinoline]-3′-carboxamide]
  EC50: 296 nM
  Emax: 207%

## CC(C)C[C@H]1C(=O)N(C)C2(CC2)C(=O)N[C@H](Cc2ccccc2)COc2cnc3ccccc3c2C(=O)N[C@H](C(=O)NCCc2ccc(-c3ncccn3)cc2)CC(=O)N1C [Example 496, (3′S,7′S,13′R)-13′-benzyl-7′-isobutyl-6′,9′-dimethyl-1′,5′,8′,11′-tetraoxo-N-(4-(pyrimidin-2-yl)phenethyl)-2′,3′,4′,5′,6′,7′,8′,9′,11′,12′,13′,14′-dodecahydro-1′H-spiro[cyclopropane-1,10′-[1]oxa[4,7,10,14]tetraazacycloheptadecino[17,16-c]quinoline]-3′-carboxamide]
  EC50: 523 nM
  Emax: 317%

## CC(C)C[C@H]1C(=O)N2CCCC[C@H]2C(=O)N[C@H](Cc2ccccc2)COc2cnc3c(F)cccc3c2C(=O)N[C@H](C(=O)NCCc2cc(C3CC3)on2)CC(=O)N1C [Example 497, (9S,13S,19aS,22R)-22-benzyl-N-(2-(5-cyclopropylisoxazol-3-yl)ethyl)-3-fluoro-13-isobutyl-12-methyl-7,11,14,20-tetraoxo-7,8,9,10,11,12,13,14,17,18,19,19a,20,21,22,23-hexadecahydro-16H-pyrido[2′,1′:6,7][1]oxa[4,7,10,14]tetraazacycloheptadecino[17,16-c]quinoline-9-carboxamide]
  EC50: 535 nM
  Emax: 171%

## CC(C)C[C@H]1C(=O)N2CCCC[C@@H]2C(=O)N[C@H](Cc2ccccc2)COc2cnc3c(F)cccc3c2C(=O)N[C@H](C(=O)NCCc2noc(C3CC3)n2)CC(=O)N1C [Example 498, (9S,13S,19aR,22R)-22-benzyl-N-(2-(5-cyclopropyl-1,2,4-oxadiazol-3-yl)ethyl)-3-fluoro-13-isobutyl-12-methyl-7,11,14,20-tetraoxo-7,8,9,10,11,12,13,14,17,18,19,19a,20,21,22,23-hexadecahydro-16H-pyrido[2′,11:6,7][1]oxa[4,7,10,14]tetraazacycloheptadecino[17,16-c]quinoline-9-carboxamide]
  EC50: 198 nM
  Emax: 313%

## CC(C)C[C@H]1C(=O)N2CCCC[C@@H]2C(=O)N[C@H](Cc2ccccc2)COc2cnc3c(F)cccc3c2C(=O)N[C@H](C(=O)NCCc2cc(C3CC3)no2)CC(=O)N1C [Example 499, (9S,13S,19aR,22R)-22-benzyl-N-(2-(3-cyclopropylisoxazol-5-yl)ethyl)-3-fluoro-13-isobutyl-12-methyl-7,11,14,20-tetraoxo-7,8,9,10,11,12,13,14,17,18,19,19a,20,21,22,23-hexadecahydro-16H-pyrido[2′,11:6,7][1]oxa[4,7,10,14]tetraazacycloheptadecino[17,16-c]quinoline-9-carboxamide]
  EC50: 189 nM
  Emax: 321%
